We go through 16 compounds from ChEMBL document CHEMBL5584220, “Design, synthesis, and biological evaluation of aralkyl piperazine and piperidine derivatives targeting SSRI/5-HT1A/5-HT7” (Bioorg Med Chem, 2024).

Data set [1] concerns the target T1, 5-hydroxytryptamine receptor 1A (Homo sapiens, UniProt P08908).
T1 sequence (P08908 whole entry): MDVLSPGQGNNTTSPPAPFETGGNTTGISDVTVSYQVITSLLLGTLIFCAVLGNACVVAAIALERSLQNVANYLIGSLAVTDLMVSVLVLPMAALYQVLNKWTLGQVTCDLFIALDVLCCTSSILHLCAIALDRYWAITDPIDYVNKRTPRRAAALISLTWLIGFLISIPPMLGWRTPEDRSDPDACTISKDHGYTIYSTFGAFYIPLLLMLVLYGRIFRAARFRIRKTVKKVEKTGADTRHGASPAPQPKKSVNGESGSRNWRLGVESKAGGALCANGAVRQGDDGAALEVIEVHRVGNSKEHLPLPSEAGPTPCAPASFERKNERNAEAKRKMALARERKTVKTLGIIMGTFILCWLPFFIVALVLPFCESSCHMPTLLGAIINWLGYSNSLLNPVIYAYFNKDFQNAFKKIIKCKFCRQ

Data set [2] concerns the target 5-hydroxytryptamine receptor 7 (Homo sapiens, UniProt P34969).
The target of data set [3] is Sodium-dependent serotonin transporter (Homo sapiens, UniProt P31645). The format is cell-based, HEK293.
Sequence of Sodium-dependent serotonin transporter (P31645 whole entry): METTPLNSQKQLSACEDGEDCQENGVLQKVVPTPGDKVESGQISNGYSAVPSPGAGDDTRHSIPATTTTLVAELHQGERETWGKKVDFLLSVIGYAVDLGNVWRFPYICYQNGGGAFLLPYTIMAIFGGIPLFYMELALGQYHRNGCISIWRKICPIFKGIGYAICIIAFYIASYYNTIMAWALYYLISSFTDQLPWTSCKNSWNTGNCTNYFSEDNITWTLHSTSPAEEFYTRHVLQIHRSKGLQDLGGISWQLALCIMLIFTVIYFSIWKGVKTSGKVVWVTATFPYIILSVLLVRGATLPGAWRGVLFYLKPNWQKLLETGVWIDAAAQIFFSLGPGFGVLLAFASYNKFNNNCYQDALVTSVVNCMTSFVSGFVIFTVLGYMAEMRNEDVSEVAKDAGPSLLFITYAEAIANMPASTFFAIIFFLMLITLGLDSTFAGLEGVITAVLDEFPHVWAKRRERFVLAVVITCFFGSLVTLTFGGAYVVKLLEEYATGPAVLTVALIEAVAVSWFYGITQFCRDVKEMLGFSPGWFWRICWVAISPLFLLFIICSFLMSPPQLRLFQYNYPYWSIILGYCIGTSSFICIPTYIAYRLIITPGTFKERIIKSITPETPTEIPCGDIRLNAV
Data set [4] deals with Voltage-gated inwardly rectifying potassium channel KCNH2 (Homo sapiens, UniProt Q12809).
Sequence of Voltage-gated inwardly rectifying potassium channel KCNH2 (Q12809 whole entry): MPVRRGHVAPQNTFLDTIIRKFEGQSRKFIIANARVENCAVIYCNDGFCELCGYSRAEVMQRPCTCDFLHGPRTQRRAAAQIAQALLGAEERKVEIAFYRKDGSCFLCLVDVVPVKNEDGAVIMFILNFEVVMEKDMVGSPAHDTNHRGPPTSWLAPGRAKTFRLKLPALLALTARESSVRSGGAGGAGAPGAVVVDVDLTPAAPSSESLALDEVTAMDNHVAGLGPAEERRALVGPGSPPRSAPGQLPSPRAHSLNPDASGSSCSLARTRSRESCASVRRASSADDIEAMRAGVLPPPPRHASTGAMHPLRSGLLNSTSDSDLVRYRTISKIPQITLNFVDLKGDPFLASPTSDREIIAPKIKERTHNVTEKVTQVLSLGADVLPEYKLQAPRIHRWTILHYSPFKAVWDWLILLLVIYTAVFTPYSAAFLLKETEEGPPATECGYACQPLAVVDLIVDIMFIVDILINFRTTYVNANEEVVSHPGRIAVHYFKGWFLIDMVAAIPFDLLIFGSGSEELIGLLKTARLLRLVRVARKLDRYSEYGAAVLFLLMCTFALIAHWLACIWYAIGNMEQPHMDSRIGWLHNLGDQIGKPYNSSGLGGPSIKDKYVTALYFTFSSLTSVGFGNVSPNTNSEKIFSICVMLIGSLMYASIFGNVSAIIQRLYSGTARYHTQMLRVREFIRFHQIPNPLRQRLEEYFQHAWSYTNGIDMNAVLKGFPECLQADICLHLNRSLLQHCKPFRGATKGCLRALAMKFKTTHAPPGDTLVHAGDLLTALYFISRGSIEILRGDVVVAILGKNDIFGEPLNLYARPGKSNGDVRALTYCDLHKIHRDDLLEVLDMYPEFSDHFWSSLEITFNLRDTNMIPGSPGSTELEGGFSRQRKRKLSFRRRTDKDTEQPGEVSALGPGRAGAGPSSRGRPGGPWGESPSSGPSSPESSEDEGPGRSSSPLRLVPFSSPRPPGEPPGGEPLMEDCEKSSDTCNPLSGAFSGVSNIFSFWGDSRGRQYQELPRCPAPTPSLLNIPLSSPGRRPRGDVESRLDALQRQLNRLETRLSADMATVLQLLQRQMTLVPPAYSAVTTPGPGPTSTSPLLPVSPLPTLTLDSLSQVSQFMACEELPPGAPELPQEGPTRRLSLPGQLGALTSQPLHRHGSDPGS
A short description of data set [5]: in vitro. To be noted: human, liver microsomes.
A short description of data set [6]: in vitro. As to conditions: mouse, liver microsomes.
Data set [7] concerns the target hERG (KCNH2) (Homo sapiens, UniProt Q12809). In words: in vitro. As to conditions: HEK293 cells that express hERG.

The structures appear in SMILES notation. Where only a bound is given, the exact number is not on record here.

Sequence of hERG (KCNH2) (Q12809 whole entry): as above
Sequence of 5-hydroxytryptamine receptor 7 (P34969 whole entry): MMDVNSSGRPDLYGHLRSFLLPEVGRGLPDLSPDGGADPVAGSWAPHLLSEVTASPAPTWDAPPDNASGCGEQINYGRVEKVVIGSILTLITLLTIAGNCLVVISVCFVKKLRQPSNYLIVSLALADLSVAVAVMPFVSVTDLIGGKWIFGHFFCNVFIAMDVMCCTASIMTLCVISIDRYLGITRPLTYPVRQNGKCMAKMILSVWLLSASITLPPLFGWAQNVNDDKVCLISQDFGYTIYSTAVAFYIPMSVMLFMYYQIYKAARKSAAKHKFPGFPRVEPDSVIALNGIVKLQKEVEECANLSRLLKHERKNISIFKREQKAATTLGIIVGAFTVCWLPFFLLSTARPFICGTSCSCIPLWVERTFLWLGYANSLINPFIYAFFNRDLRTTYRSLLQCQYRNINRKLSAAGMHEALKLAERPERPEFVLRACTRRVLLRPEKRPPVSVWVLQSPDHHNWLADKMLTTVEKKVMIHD

Regarding `COc1ccccc1N1CCN(CCCCCC(=O)NC2CCCc3ccccc32)CC1` (centres undefined), the Ki in data set [1] was 6.64 nM; in data set [2] it was 8.6 nM.
For `CSc1ccccc1N1CCN(CCCCCC(=O)NC2CCCc3ccccc32)CC1` (centres undefined), in that order: 0.22 nM and 52.7 nM.
For `CCOc1ccccc1N1CCN(CCCCCn2cnc3sc(C)c(C)c3c2=O)CC1`, in that order: 2.99 nM and 1.03 nM.
On to `Fc1ccc(C2CCN(CCCc3c[nH]c4ccc(F)cc34)CC2)c(-c2ccccc2)c1`, for which the Ki was determined as 5.7 nM in data set [1] and 26.8 nM in data set [2]. In addition, the IC50 worked out at 251 nM in data set [3] and 160 nM in data set [4]. The intrinsic metabolic clearance (microsomal CLint) at 1 µM in data set [5] was 27.8 µL/min/mg.
In the case of `CSc1ccccc1N1CCN(CCCCc2c[nH]c3ccc(F)cc23)CC1`, the results for the microsomal CLint at 1 µM in data set [6] and in data set [5] were 156 µL/min/mg and 27.8 µL/min/mg, respectively. Further, in data set [7], the inhibition at 1 µM came out at 82.7%.
For `CSc1ccccc1C1CCN(CCCc2c[nH]c3ccc(F)cc23)CC1`, in that order: 62.3 µL/min/mg, 24.5 µL/min/mg and 96.6%.
For `Fc1ccc(C2=CCN(CCCc3c[nH]c4ccc(F)cc34)CC2)c(-c2ccccc2)c1`, in that order: 202 µL/min/mg, 22.1 µL/min/mg and 82.6%.
For `CSc1ccccc1N1CCN(CCCCCc2c[nH]c3ccc(F)cc23)CC1`, the microsomal CLint at 1 µM came out at 83.2 µL/min/mg in data set [6] and 90.1 µL/min/mg in data set [5]. In data set [7], the inhibition at 1 µM came out at 84.5%.
For `CCSc1ccccc1N1CCN(CCCc2c[nH]c3ccc(F)cc23)CC1` the same measures were 47.6 µL/min/mg, 39.5 µL/min/mg and 90.1%.
In turn, `NC(=O)c1ccc2[nH]cc(CCCN3CCC(c4ccc(F)cc4-c4ccccc4)CC3)c2c1` came in with a Ki in data set [1] of less than 0.04 nM. Besides, in data set [3], the IC50 was more than 10000 nM.
Consider `CCOc1ccccc1N1CCN(CCCc2c[nH]c3ccc(F)cc23)CC1`, for which the IC50 is 0.85 nM in data set [3] and 160 nM in data set [4].
Consider `OC(CCN1CCC(c2ccc(F)cc2-c2ccccc2)CC1)c1c[nH]c2ccc(F)cc12` (centres undefined), for which, in data set [4], it took 530 nM to reach half-maximal inhibition (IC50).
For `COc1ccccc1N1CCN(CCCc2c[nH]c3ccc(F)cc23)CC1`, the results for the IC50 in data set [3] and in data set [4] were 0.85 nM and 310 nM, respectively.
For `CSc1ccccc1N1CCN(CCCc2c[nH]c3ccc(F)cc23)CC1`, in that order: 1.9 nM and 390 nM.
As for `CSc1ccccc1N1CCN(CCCc2c[nH]c3ccc(C#N)cc23)CC1`, the microsomal CLint at 1 µM came to 208 µL/min/mg in data set [6] and 127 µL/min/mg in data set [5]. Besides, in data set [7], the inhibition at 1 µM came out at 97.6%.
Take `COc1ccc2c(c1)[C@]13CCCC[C@@H]1[C@H](C2)N(C)CC3` [DEXTROMETHORPHAN]: the microsomal CLint at 1 µM in data set [5] is 28 µL/min/mg.
